From article PMC10914731, “Homo-BacPROTAC-induced degradation of ClpC1 as a strategy against drug-resistant mycobacteria” (Nature Communications, 2024)
Converted amounts (≈) assume the structure as drawn. “And” between values parts separate entries of the source, which are not always exact repeats. Equal entries are not always repeated. Where two headings read alike, the source gives them in different places.

Assays:
[1] = Hepatocyte stability, mice; type: in vitro ADME
Outline: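 1 µM cpd (DMSO <0.05% final), cryopreserved hepatocytes ~1e6 cells/mL, 50% serum, pH 7.4, 37 °C/5–10% CO2; up to 6 h, 6 timepoints; ACN quench, HPLC-MS/MS; t1/2 → CL via well-stirred model, % Qh.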

[2] = type: in vitro ADME, Rat
[3] = tested on: Mtb (moxR) FNDR-M1; experiment: microbe, parasite or virus in culture; type: cell-based
[4] = tested on: Enterococcus faecium; experiment: MIC ESKAPES panel, Enterococcus faecium; type: cell-based
Method: (§1) Minimum inhibitory concentration (MIC) against ESKAPES panel of Gram positive and Gram negative pathogens (Enterococcus faecium, Staphylococcus aureus, Klebsiella pneumoniae, Acinetobacter baumannii, Pseudomonas aeruginosa, Enterobacter cloacae and Salmonella typhimurium [ESKAPES panel]) were determined at the FNDR by the standard broth dilution method [CLSI, M100]. […] Mueller Hinton broth (MHB) medium was used to grow ESKAPES panel strains. The individual cultures were added as 200 μL (inoculum of 3–7 × 10^5 cfu/ml) to the respective assay plates in each well to all columns, except the media control (200 μL of medium). […] The assay plates were incubated at 37 °C, and the results were noted on the 2nd day as turbidometric readout. The clear wells indicated inhibition of growth, while the turbid wells indicated uninhibited growth.

[5] = tested on: Staphylococcus aureus; experiment: MIC ESKAPES panel, Staphylococcus aureus; type: cell-based
Method: as §1

[6] = tested on: Acinetobacter baumannii; experiment: MIC ESKAPES panel, Acinetobacter baumannii; type: cell-based
Method: as §1

[7] = tested on: Msm #607; experiment: Minimum bactericidal concentration (MBC), Msm #607; type: cell-based, Mycobacterium smegmatis; settings: for MBC: Mycolicibacterium smegmatis
[8] = tested on: Mtb H37Rv; experiment: Minimum bactericidal concentration (MBC), Mtb H37Rv; type: cell-based, Mycobacterium tuberculosis; settings: for MBC: Mycobacterium tuberculosis, H37RV
[9] = tested on: Mtb H37Rv in THP-1 macrophages; experiment: Intracellular MIC assay in THP-1 macrophages; type: cell-based, Mycobacterium tuberculosis; design: Emax: unit not given here
[10] = in vivo; type: in vivo, BALB/cAnNCrl mice
Method: The in-life experimental procedures were conducted in strict compliance with German and European animal welfare legislation in an AAALAC-accredited facility. Male BALB/cAnNCrl mice (Charles River Laboratories Research Models and Services, 97633 Sulzfeld, Germany) were used. Animals were 9 weeks old at dosing with a body weight of 21.6–24.3 g. Animals were delivered free of pathogens according to FELASA recommendations with a health certificate provided by the breeder. Upon receipt, the state of health and sex was checked. Animals acclimatized for at least 5 days before the commencement of the in-life phase. During acclimation, animals were group-housed in individually ventilated cages, on birch wood granulate bedding with species-specific enrichment (nesting material, mouse igloo, gnawing wood). During experimental conduct, animals were housed in conventional cages with elevated grid floors. Grid floor was used to avoid contamination with test item material excreted via urine and feces and subsequent reuptake during fur grooming. No bedding and enrichment were provided except a cage divider, which can be used as a shelter. Animals always had unlimited access to food and water and received a pelleted, total pathogen-free maintenance diet and tap drinking water, sterilized by filter.
On the day before dosing, test item(s) were suspended in kleptose (20% in WFI) under continuous stirring (3.0 mg/ml). Following 2 min vortexing and 1 h stirring, the formulation was sonicated at 60 °C for 30 min and stirred at ambient temperature overnight. Before dosing, the formulation was vortexed for 2 min followed by ultraturrax treatment for 2 min.
Male BALB/cAnNCrl mice (n = 3 per test item and administration route) received a bolus dose of the formulated test item(s) (1 mg/kg iv, 30 mg/kg po) at t = 0 h, and whole blood samples were collected subsequently (35 µl at 0.1 (iv) / 0.25 (po), 0.5, 1, 2, 4, 6 h; 600 µl at sacrifice after 24 h). Animals were euthanized by exsanguination in deep isoflurane anesthesia. Whole blood samples were immediately stored on ice at about 4 °C. Plasma was separated by centrifugation at approximately 10,000 × g for 5 m at +4 °C. Centrifugation of each blood sample was started within 10 m after collection. A single aliquot of at least 15 µL of plasma was prepared and immediately stored at −20 ± 5 °C.
Sample proteins were precipitated with ACN (1 + 12, v/v) containing internal standard, and supernatants analyzed by quantitative UPLC-MS/MS: Phenomenex Luna Omega C18, 2.1 × 50 mm, 1.6 µm, 40 °C, gradient between 10% - 90% ACN with 0.1% formic acid. LogD determination: Lipophilicity of the test items, expressed as chromLogD7.5, was assessed by measuring their chromatographic retention times on C18-material. The chromatographic retention versus logD7.5 values of a series of thirteen n-alkan-2-ones (2-butanone – 2-hexadecanone) served as lipophilicity calibration.

[11] = M. tuberculosis FNDR-M1, single well replicates
[12] = Mycobacterium tuberculosis, M. tuberculosis FNDR-M1, single well replicates
[13] = Mycobacterium tuberculosis, Mtb (moxR) FNDR-M1, mean ± SD, n = 3 well replicates
[14] = Enterococcus faecium, Gram positive, n = 3 well replicates
[15] = Enterococcus faecium, Gram-Positive Bacteria, replicates 1-3
[16] = Gram-Positive Bacteria, replicates 1-3, listed as 8 (UdSBI-0545)
[17] = Staphylococcus aureus, Gram positive, n = 3 well replicates
[18] = Staphylococcus aureus, Gram-Positive Bacteria, replicates 1-3
[19] = Gram negative, n = 3 well replicates, read-out: MIC Acinetobacter baumanii
[20] = Gram-Negative Bacteria, replicates 1-3, read-out: MIC Acinetobacter baumannii
[21] = ATCC607, read-out: MBC (from Set 3) Msm ATCC 607
[22] = read-out: MBC (from Set 3) Mtb H37Rv
[23] = oral gavage 30 mg/kg, mice, Mean, BLOQ <1.00 nmol/L
[24] = Gram-Positive Bacteria, replicates 1-3, listed as 12 (UdSBI-4377)
[25] = male, BALB/cAnNCrl, mouse, in vivo, po

COC(c1ccccc1)C1NC(=O)C(C)NC(=O)C(CC(C)CO)N(C)C(=O)C(Cc2cn(Cc3cn(CCOCCOCCOCCOCCn4cc(Cn5cc(CC6NC(=O)C(C(C)C)NC(=O)C(CC(C)C)N(C)C(=O)C(C(C)C)NC(=O)C(C(OC)c7ccccc7)NC(=O)C(C)NC(=O)C(CC(C)CO)N(C)C6=O)c6ccccc65)nn4)nn3)c3ccccc23)NC(=O)C(C(C)C)NC(=O)C(CC(C)C)N(C)C(=O)C(C(C)C)NC1=O (stereo not shown) [Compound 8]
Hepatocyte Stability Mouse QH ([1]; Mouse): 50.268% | Hepatocyte Mice ([1]; clearance in hepatocytes): 32 %Qh | Hepatocyte Rat ([2]; clearance in hepatocytes): 6 %Qh | MIC [3, 11]: 0.195 µM (≈ 0.423 µg/mL) | MIC [3, 12]: 0.195 µM (≈ 0.423 µg/mL) | MIC [3, 13]: 0.2 µM (≈ 0.434 µg/mL) | MIC [4, 14]: > 50 µM | MIC [4, 15]: > 109 µg/mL | MIC [4, 16]: >50 µM | MIC [5, 16]: >50 µM | MIC [5, 17]: > 50 µM | MIC [5, 18]: > 109 µg/mL | MIC [6, 19]: > 50 µM | MIC [6, 20]: > 50 µM and > 109 µg/mL | colony growth after replating (MBC assay) ([7]; Msm #607, up to 50 µM, result in words): growth of colonies could be observed across all tested concentrations | MBC [7, 21]: > 109 µg/mL and > 50 µM | MBC ([7]; read-out: MBC Msm #607, individual example): > 50 µM and > 108 µg/mL | colony growth after replating (MBC assay) ([8]; Mtb H37Rv, result in words): did not form any colonies at concentrations at or above the MIC value | MBC [8, 22]: 0.22 µg/mL and 0.1 µM | MBC ([8]; individual example, read-out: MBC Mtb H37Rv): 0.1 µM and 0.2 µg/mL | Emax [9]: 1.27 | intracellular viable mycobacteria ([9]; 0.19µM, Day 4, well replicates): 5.45 log10 cfu/ml | intracellular viable mycobacteria ([9]; 0.19µM, Day 7, well replicates): 5.56 log10 cfu/ml | intracellular viable mycobacteria ([9]; 0.781µM, Day 4, well replicates): 4.88 log10 cfu/ml | intracellular viable mycobacteria ([9]; 0.781µM, Day 7, well replicates): 4.81 log10 cfu/ml | intracellular viable mycobacteria ([9]; 3.125µM, Day 4, well replicates): 4.56 log10 cfu/ml | intracellular viable mycobacteria ([9]; 3.125µM, Day 7, well replicates): 4.31 log10 cfu/ml and 4.3 log10 cfu/ml | intracellular viable mycobacteria ([9]; 50µM, Day 4, well replicates): 4.3 log10 cfu/ml | intracellular viable mycobacteria ([9]; 50µM, Day 7, well replicates): 3.92 log10 cfu/ml and 3.9 log10 cfu/ml | Plasma concentration 0.5 h [10, 23]: 19.4 nmol/L | Plasma concentration 1 h [10, 23]: 18.1 nmol/L | Plasma concentration 2 h [10, 23]: 26.0 nmol/L | Plasma concentration 4 h [10, 23]: 31.8 nmol/L | Plasma concentration 6 h [10, 23]: 32.5 nmol/L | Plasma concentration 24 h [10, 23]: 96.7 nmol/L | Plasma concentration […] [10, 23]: 25.7 nmol/L | Plasma concentration 24 h ([10]; oral gavage, individual animals 1-3, BLOQ <1.00 nmol/L, listed as 8 (UdSBI-0545)): 101 nmol/L and 92.4 nmol/L | Cmax/Dose ([10]; oral gavage, mice, Mean): 10.4 nM/nmol/kg | tmax ([10]; oral gavage, mice, Mean): 24.0 h | AUC0-t/Dose ([10]; oral gavage, mice, Mean (compound 6: maximum potential value with 1 nM for each time point)): 165 h*nM/nmol/kg

COC(c1ccccc1)C1NC(=O)C(C)NC(=O)C(CC(C)CO)N(C)C(=O)C(Cc2cn(C)c3ccccc23)NC(=O)C(Cc2cn(CCCCCn3cc(CC4NC(=O)C(CC(C)C)N(C)C(=O)C(C(C)C)NC(=O)C(C(OC)c5ccccc5)NC(=O)C(C)NC(=O)C(CC(C)CO)N(C)C(=O)C(Cc5cn(C)c6ccccc56)NC4=O)nn3)nn2)NC(=O)C(CC(C)C)N(C)C(=O)C(C(C)C)NC1=O (stereo not shown) [Compound 12]
Hepatocyte Mice ([1]; mouse, pH 7.4): 15 %Qh | Hepatocyte Rat ([2]; rat, pH 7.4): 6 %Qh | MIC [3, 11]: 0.195 µM (≈ 0.386 µg/mL) | MIC [3, 12]: 0.195 µM (≈ 0.386 µg/mL) | MIC [3, 13]: 0.2 µM (≈ 0.396 µg/mL) | MIC [4, 14]: > 50 µM | MIC [4, 15]: > 99 µg/mL | MIC [4, 24]: >50 µM | MIC [5, 24]: >50 µM | MIC [5, 17]: > 50 µM | MIC [5, 18]: > 99 µg/mL | MIC [6, 19]: > 50 µM | MIC [6, 20]: > 50 µM and > 99 µg/mL | colony growth after replating (MBC assay) [7]: growth of colonies could be observed across all tested concentrations | MBC [7, 21]: > 99 µg/mL and > 50 µM | MBC ([7]; read-out: MBC Msm #607): > 50 µM and > 99 µg/mL | colony growth after replating (MBC assay) [8]: did not form any colonies at concentrations at or above the MIC value | MBC [8, 22]: 0.1 µM and 0.2 µg/mL | MBC ([8]; read-out: MBC Mtb H37Rv): 0.1 µM and 0.2 µg/mL | Emax [9]: 0.28 | AUC0-inf/Dose [10, 25]: 62.6 h*nM/nmol/kg | AUC0-t/Dose [10, 25]: 45.5 h*nM/nmol/kg | BA [10, 25]: 0.7% | Cmax/Dose [10, 25]: 2.56 nM/nmol/kg
